Test results taken from PMC3475094, “Identification Of Small Molecule TRABID Deubiquitinase Inhibitors By Computation-Based Virtual Screen” (BMC Chemical Biology, 2012).

Target: T1, TRABID (Homo sapiens, UniProt Q9UGI0)
T1 construct: gene ZRANB1; full length TRABID
T1 sequence (Q9UGI0 1-708): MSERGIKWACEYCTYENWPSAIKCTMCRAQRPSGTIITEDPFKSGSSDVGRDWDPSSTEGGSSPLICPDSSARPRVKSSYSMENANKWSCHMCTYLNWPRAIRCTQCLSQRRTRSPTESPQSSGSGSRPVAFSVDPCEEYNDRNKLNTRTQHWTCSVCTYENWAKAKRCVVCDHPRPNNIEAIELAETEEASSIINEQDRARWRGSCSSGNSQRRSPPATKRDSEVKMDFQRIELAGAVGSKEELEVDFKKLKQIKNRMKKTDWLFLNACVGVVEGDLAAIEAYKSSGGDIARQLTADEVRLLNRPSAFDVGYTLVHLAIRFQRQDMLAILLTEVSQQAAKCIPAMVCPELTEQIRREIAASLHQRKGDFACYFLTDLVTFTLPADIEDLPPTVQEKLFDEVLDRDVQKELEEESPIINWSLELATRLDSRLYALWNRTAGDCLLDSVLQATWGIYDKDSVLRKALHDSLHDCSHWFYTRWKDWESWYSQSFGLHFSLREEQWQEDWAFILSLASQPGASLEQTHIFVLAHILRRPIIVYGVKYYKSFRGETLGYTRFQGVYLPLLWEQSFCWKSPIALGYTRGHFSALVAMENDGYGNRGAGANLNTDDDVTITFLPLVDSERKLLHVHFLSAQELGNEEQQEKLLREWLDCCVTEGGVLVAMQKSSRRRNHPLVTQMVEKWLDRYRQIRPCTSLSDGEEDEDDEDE
Experiment: Hexa-K63 ubiquitin cleavage assay, Western blot quantification
Type: biochemical

Row | IC50 | SMILES
1 | 7.54 µM | Cc1cc(O)c(Cl)cc1O [compound 29034, NSC29034]
2 | 7.17 µM | Oc1cc(Br)c(O)cc1Br [compound 133363, NSC133363]
